In US9834558B2, “Substituted bridged urea analogs as sirtuin modulators” (GLAXOSMITHKLINE LLC, priority 2013, dated 2017):
Like-named read-outs stand apart in the source and are kept apart here. Each block holds one compound with its values, some of them ahead of it.

Target: T1, SIRT1 (Homo sapiens, UniProt Q96EB6)
T1 sequence (Q96EB6 1-747): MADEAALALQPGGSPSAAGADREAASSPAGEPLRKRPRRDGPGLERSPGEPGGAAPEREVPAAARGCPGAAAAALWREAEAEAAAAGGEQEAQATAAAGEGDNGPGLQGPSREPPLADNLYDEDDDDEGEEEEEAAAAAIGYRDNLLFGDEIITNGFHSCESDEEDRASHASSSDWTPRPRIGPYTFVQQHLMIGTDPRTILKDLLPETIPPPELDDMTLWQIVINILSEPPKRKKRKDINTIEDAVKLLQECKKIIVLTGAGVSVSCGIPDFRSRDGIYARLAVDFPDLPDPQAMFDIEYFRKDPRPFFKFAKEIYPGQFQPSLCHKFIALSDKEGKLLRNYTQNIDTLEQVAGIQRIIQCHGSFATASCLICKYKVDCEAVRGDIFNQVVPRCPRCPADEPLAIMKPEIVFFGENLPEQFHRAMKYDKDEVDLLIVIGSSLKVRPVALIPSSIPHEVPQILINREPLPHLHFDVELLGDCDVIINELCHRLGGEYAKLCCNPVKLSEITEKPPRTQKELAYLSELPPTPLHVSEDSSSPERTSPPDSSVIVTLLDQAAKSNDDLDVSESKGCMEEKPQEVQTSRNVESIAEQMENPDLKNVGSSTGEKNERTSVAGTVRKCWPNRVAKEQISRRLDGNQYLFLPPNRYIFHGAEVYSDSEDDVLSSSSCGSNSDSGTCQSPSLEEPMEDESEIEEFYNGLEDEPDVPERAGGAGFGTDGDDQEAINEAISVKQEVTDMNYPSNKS
Assay: Trp mass spectrometry assay of SIRT1 activation
Format: biochemical
Details: for TRP Activity (EC1.5): EC1.5 = concentration that results in 150% activation of SIRT1
In short: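 Activation read-out: mass-spec measurement of O-acetyl-ADP-ribose or deacetylated Trp peptide versus compound-free controls, giving EC1.5 and Percent Maximum Activation. Reactions ran 25 min at 25 °C, pH 7.5, with 120 μM βNAD+, 0.5 μM acetylated p53-derived peptide and 10 nM His-tagged SIRT1.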

[1] = Trp peptide assay, maximum activity relative to control (100%), read-out: TRP MAX RESP (percent maximum fold activation)
[2] = concentration giving 150% activation of SIRT1, Trp peptide substrate
[3] = Trp mass spectrometry assay, EC1.5 = concentration of test compound that results in 150% activation of SIRT1
[4] = Trp mass spectrometry assay, concentration of test compound giving 150% activation of SIRT1

TRP Activity (EC1.5) (Trp peptide assay): B (B (EC1.5 1-25 μM))
Emax [1]: > 150%
SMILES: O=C(Nc1cnccn1)N1c2nc(-c3ccc(C4CC4)nc3)ccc2N2CC[C@H]1C2 [(9S)-5-(6-cyclopropylpyridin-3-yl)-N-(pyrazin-2-yl)-1,6,8-triazatricyclo[7.2.1.0 {2,7}]dodeca-2(7),3,5-triene-8-carboxamide]

Tryp AVG EC1.5 (μM) [2]: A (A (EC1.5<1 μM))
SMILES: O=C(Nc1ccccn1)N1c2nc(-c3cccc(C(F)(F)F)c3)ccc2N2CC[C@@H]1C2 [Example 823]

Tryp AVG EC1.5 (μM) [3]: C (C (EC1.5>25 μM))
SMILES: O=C(Nc1ccncn1)N1c2nc(N3CCCNCC3)ccc2N2CCC[C@H]1C2 [Example 420]

Tryp AVG EC1.5 (μM) [3]: A (A (EC1.5<1 μM))
SMILES: O=C(Nc1ccccn1)N1c2nc(-c3cccc(C(F)(F)F)c3)ccc2N2C[C@@H](O)[C@H]1C2 [Example 601]

Tryp AVG EC1.5 (μM) [3]: A (A (EC1.5<1 μM))
Emax (Trp mass spectrometry assay, percent maximum fold activation of SIRT1, read-out: Tryp % Fold Act): > 150%
SMILES: O=C(Nc1ccc(-n2cncn2)cc1)N1c2nc(-c3cncc(C(F)(F)F)c3)ccc2N2CC[C@H]1C2 [Example 580]

Tryp AVG EC1.5 (μM) [3]: B (B (EC1.5 1-25 μM))
SMILES: O=C1CN2C[C@H]1N(C(=O)Nc1ccccn1)c1nc(-c3cccc(C(F)(F)F)c3)ccc12 [Example 620]

Tryp AVG EC1.5 (μM) [3]: A (A (EC1.5<1 μM))
SMILES: Cc1cncc(-c2ccc3c(n2)N(C(=O)Nc2ccccn2)[C@H]2CCCN3C2)c1 [Example 504]

Tryp AVG EC1.5 (μM) [3]: B (B (EC1.5 1-25 μM))
SMILES: O=C(NCCCc1ccccc1)N1c2nc(-c3cccc(C(F)(F)F)c3)ccc2N2CC[C@H]1C2 [Example 599]

Tryp AVG EC1.5 (μM) [3]: A (A (EC1.5<1 μM))
SMILES: O=C(Nc1cccc(C2CCNC2)c1)N1c2nc(-c3cccc(C(F)(F)F)c3)ccc2N2CC[C@H]1C2 (stereo partly drawn) [Example 593]

TRP Activity (EC1.5) (Trp peptide assay): B (B (EC1.5 1-25 μM))
Emax [1]: > 150%
SMILES: Cc1ncc(-c2ccc3c(n2)N(C(=O)Nc2cnccn2)[C@H]2CCN3C2)cc1F [(9S)-5-(5-fluoro-6-methylpyridin-3-yl)-N-(pyrazin-2-yl)-1,6,8-triazatricyclo[7.2.1.0 {2,7}]dodeca-2(7),3,5-triene-8-carboxamide]

Tryp AVG EC1.5 (μM) [2]: A (A (EC1.5<1 μM))
SMILES: C#CCOc1cccc(NC(=O)N2c3nc(-c4cccc(C5(C(F)(F)F)N=N5)c4)ccc3N3CC[C@H]2C3)c1 [Example 797]

Tryp AVG EC1.5 (μM) [3]: B (B (EC1.5 1-25 μM))
SMILES: O=C(Nc1cncc(F)c1)N1c2nc(-c3cccc(Cl)c3)ccc2N2CCC1CC2 [Example 521]

Tryp AVG EC1.5 (μM) [3]: B (B (EC1.5 1-25 μM))
SMILES: O=C(Nc1cnccn1)N1c2nc(-c3cccc(N4CCOCC4)c3)ccc2N2CCC[C@H]1C2 [Example 560]

Tryp AVG EC1.5 (μM) [2]: A (A (EC1.5<1 μM))
SMILES: O=C(Nc1cccc(C2=CCOCC2)n1)N1c2nc(-c3cccc(C(F)(F)F)c3)ccc2N2CC[C@H]1C2 [Example 658]

TRP Activity (EC1.5) (Trp peptide assay): B (B (EC1.5 1-25 μM))
Emax [1]: > 150%
SMILES: Cc1cc(-c2ccc3c(n2)N(C(=O)Nc2cnc4c(c2)OCCO4)[C@H]2CCN3C2)ccn1 [(9S)-N-{2H,3H-[1,4]dioxino[2,3-b]pyridin-7-yl}-5-(2-methylpyridin-4-yl)-1,6,8-triazatricyclo[7.2.1.0 {2,7}]dodeca-2,4,6-triene-8-carboxamide]

TRP Activity (EC1.5) (Trp peptide assay): B (B (EC1.5 1-25 μM))
Emax [1]: > 150%
SMILES: Cc1cc(-c2ccc3c(n2)N(C(=O)NC2CCC2)[C@H]2CCN3C2)ccn1 [(9S)-N-cyclobutyl-5-(2-methylpyridin-4-yl)-1,6,8-triazatricyclo[7.2.1.0 {2,7}]dodeca-2(7),3,5-triene-8-carboxamide]

Tryp AVG EC1.5 (μM) [2]: A (A (EC1.5<1 μM))
SMILES: NCCCCCC(=O)NCc1cn(-c2cccc(NC(=O)N3c4nc(-c5cccc(C(F)(F)F)c5)ccc4N4CC[C@H]3C4)c2)nn1 [Example 639]

TRP Activity (EC1.5) (Trp peptide assay): A (A (EC1.5<1 μM))
Emax [1]: > 150%
SMILES: CC(C)c1cc(-c2ccc3c(n2)N(C(=O)Nc2cnccn2)[C@H]2CCN3C2)ccn1 [(9S)-5-[2-(propan-2-yl)pyridin-4-yl]-N-(pyrazin-2-yl)-1,6,8-triazatricyclo[7.2.1.0 {2,7}]dodeca-2,4,6-triene-8-carboxamide]

Tryp AVG EC1.5 (μM) [2]: B (B (EC1.5 1-25 μM))
SMILES: COc1cc(NC(=O)N2c3nc(-c4cccc(Cl)c4)ccc3N3C[C@@H](O)[C@H]2C3)nc(OC)n1 [Example 680]

Tryp AVG EC1.5 (μM) [2]: A (A (EC1.5<1 μM))
SMILES: CC(=O)NCc1ccc(NC(=O)N2c3nc(-c4cccc(C(F)(F)F)c4)ccc3N3CCC[C@H]2C3)cc1 [Example 790]

TRP Activity (EC1.5) (Trp peptide assay): B (B (EC1.5 1-25 μM))
Emax [1]: > 150%
SMILES: CCc1ccc(-c2ccc3c(n2)N(C(=O)Nc2cnccn2)[C@H]2CCN3C2)cn1 [(9S)-5-(6-ethylpyridin-3-yl)-N-(pyrazin-2-yl)-1,6,8-triazatricyclo[7.2.1.0 {2,7}]dodeca-2(7),3,5-triene-8-carboxamide]

TRP Activity (EC1.5) (Trp peptide assay): B (B (EC1.5 1-25 μM))
Emax [1]: > 150%
SMILES: Cc1cc(-c2ccc3c(n2)N(C(=O)Nc2ccn(C)n2)[C@H]2CCN3C2)ccn1 [(9S)-N-(1-methyl-1H-pyrazol-3-yl)-5-(2-methylpyridin-4-yl)-1,6,8-triazatricyclo[7.2.1.0 {2,7}]dodeca-2,4,6-triene-8-carboxamide]

TRP Activity (EC1.5) (Trp peptide assay): B (B (EC1.5 1-25 μM))
Emax [1]: > 150%
SMILES: CCOc1cnc(NC(=O)N2c3nc(-c4ccnc(C)c4)ccc3N3CC[C@H]2C3)cn1 [(9S)-N-(5-ethoxypyrazin-2-yl)-5-(2-methylpyridin-4-yl)-1,6,8-triazatricyclo[7.2.1.0 {2,7}]dodeca-2(7),3,5-triene-8-carboxamide]

TRP Activity (EC1.5) (Trp peptide assay): B (B (EC1.5 1-25 μM))
Emax [1]: > 150%
SMILES: O=C(Nc1cccnc1)N1c2nc(-c3ccc(C(F)(F)F)nc3)ccc2N2CC[C@H]1C2 [(9S)-N-(pyridin-3-yl)-5-[6-(trifluoromethyl)pyridin-3-yl]-1,6,8-triazatricyclo[7.2.1.0^{2,7}]dodeca-2(7),3,5-triene-8-carboxamide]

TRP Activity (EC1.5) (Trp peptide assay): B (B (EC1.5 1-25 μM))
Emax [1]: > 150%
SMILES: CN(C)c1cc(-c2ccc3c(n2)N(C(=O)Nc2cnccn2)[C@H]2CCN3C2)ccn1 [(9S)-5-[2-(dimethylamino)pyridin-4-yl]-N-(pyrazin-2-yl)-1,6,8-triazatricyclo[7.2.1.0 {2,7}]dodeca-2(7),3,5-triene-8-carboxamide]

Tryp AVG EC1.5 (μM) [3]: B (B (EC1.5 1-25 μM))
SMILES: CCCn1cc(-c2ccc3c(n2)N(C(=O)Nc2cccnc2)[C@H]2CCN3C2)cn1 [Example 487]

Tryp AVG EC1.5 (μM) [4]: B (B (EC1.5 1-25 μM))
SMILES: CN(C)c1cccc(-c2ccc3c(n2)N(C(=O)Nc2ccccn2)[C@H]2CCCN3C2)c1 [Example 386]

Tryp AVG EC1.5 (μM) [4]: B (B (EC1.5 1-25 μM))
SMILES: COc1ccc(-c2ccc3c(n2)N(C(=O)Nc2cnccn2)[C@H]2CCN3C2)cn1 [Example 399]

Tryp AVG EC1.5 (μM) [2]: A (A (EC1.5<1 μM))
SMILES: CS(=O)(=O)Nc1cccc(NC(=O)N2c3nc(-c4cccc(C(F)(F)F)c4)ccc3N3CC[C@H]2C3)c1 [Example 642]

Tryp AVG EC1.5 (μM) [3]: A (A (EC1.5<1 μM))
SMILES: N#Cc1cncc(-c2ccc3c(n2)N(C(=O)Nc2ccccn2)[C@H]2CCCN3C2)c1 [Example 557]

Emax (Trp peptide substrate, percent maximum fold activation of SIRT1, read-out: Tryp % Fold Act): > 150%
SMILES: O=C(Nc1cc(F)ccn1)N1c2nc(-c3cccc(OC(F)(F)F)c3)ccc2N2CC[C@H]1C2 [Compound 174]

TRP Activity (EC1.5) (Trp peptide assay): B (B (EC1.5 1-25 μM))
Emax [1]: > 150%
SMILES: O=C(Nc1cnccn1)N1c2nc(-c3ccc(C(F)(F)F)nc3)ccc2N2CC[C@H]1C2 [(9S)-N-(pyrazin-2-yl)-5-[6-(trifluoromethyl)pyridin-3-yl]-1,6,8-triazatricyclo[7.2.1.0 {2,7}]dodeca-2(7),3,5-triene-8-carboxamide]

Tryp AVG EC1.5 (μM) [3]: A (A (EC1.5<1 μM))
SMILES: Cc1cncc(-c2ccc3c(n2)N(C(=O)Nc2cccnn2)[C@H]2CCCN3C2)c1 [Example 519]

Tryp AVG EC1.5 (μM) [2]: A (A (EC1.5<1 μM))
SMILES: N=C(N)NCc1ccc(NC(=O)N2c3nc(-c4cccc(C(F)(F)F)c4)ccc3N3CCC[C@H]2C3)cc1 [Example 777]

Tryp AVG EC1.5 (μM) [2]: B (B (EC1.5 1-25 μM))
SMILES: CC(C)(C)OC(=O)NCc1cccc(-c2ccc3c(n2)N(C(=O)Nc2ccncc2)[C@H]2CCCN3C2)c1 [Example 795]

Tryp AVG EC1.5 (μM) [4]: A (A (EC1.5<1 μM))
SMILES: O=C(Nc1cnccn1)N1c2nc(-c3cncc(Cl)c3)ccc2N2CCC[C@H]1C2 [Example 417]

Tryp AVG EC1.5 (μM) [2]: C (C (EC1.5>25 μM))
SMILES: O=C(NCCn1ccnc1)N1c2nc(-c3cccc(C(F)(F)F)c3)ccc2N2CC[C@H]1C2 [Example 661]

Tryp AVG EC1.5 (μM) [3]: C (C (EC1.5>25 μM))
SMILES: O=C(CCCCCNC(=O)c1ccc(-c2c3ccc(=O)cc-3oc3cc(O)ccc23)c(C(=O)O)c1)NCc1ccc(NC(=O)N2c3nc(-c4cccc(C(F)(F)F)c4)ccc3N3CC[C@H]2C3)cc1 [Example 547]

Tryp AVG EC1.5 (μM) [2]: A (A (EC1.5<1 μM))
SMILES: O=C(Nc1cccc(CN2CCOCC2)c1)N1c2nc(-c3cccc(C(F)(F)F)c3)ccc2N2CC[C@H]1C2 [Example 629]
